Key:
Assay type in all cases: cell-based
Conditions in all cases: with inhibitor at 4 μg/mL
[1] = tested on: E. coli 1924; assay: Broth microdilution MIC (strain enzymes: TEM-12)
[2] = tested on: E. coli 2150; assay: Broth microdilution MIC (strain enzymes: SHV-3, TEM-1)
[3] = tested on: E. coli 3327; assay: Broth microdilution MIC (strain enzymes: TEM-1, SHV-12)
[4] = tested on: E. coli ESBL 2; assay: Broth microdilution MIC (strain enzymes: TEM-1)
[5] = tested on: E. coli ESBL 4; assay: Broth microdilution MIC (strain enzymes: CTX-M15, TEM-1)
[6] = tested on: E. coli SI-AIRT-4; assay: Broth microdilution MIC (strain enzymes: TEM-1)
[7] = tested on: E. coli SI-LP377; assay: microbe, parasite or virus in culture
[8] = tested on: E. coli SI-NO36; assay: Broth microdilution MIC (strain enzymes: SHV-11, TEM-1)
[9] = tested on: E. coli SI-PBLII; assay: Broth microdilution MIC (strain enzymes: CTX-M2, TEM-1)
[10] = tested on: E. coli 25922; assay: Broth microdilution MIC (strain enzymes: None detected)
[11] = tested on: K. oxytoca 496 #2; assay: Broth microdilution MIC (strain enzymes: SHV-105, TEM-1)
[12] = tested on: K. pneumoniae 3151; assay: Broth microdilution MIC (strain enzymes: SHV-12, TEM-1)
[13] = tested on: K. pneumoniae 115468; assay: Broth microdilution MIC (strain enzymes: TEM-1)
[14] = tested on: K. pneumoniae 11/23 LF#2; assay: microbe, parasite or virus in culture
[15] = tested on: K. pneumoniae ESBL 10; assay: Broth microdilution MIC (strain enzymes: SHV-12, TEM-1)
[16] = tested on: K. pneumoniae ESBL 7 #2; assay: Broth microdilution MIC (strain enzymes: SHV-12, CTX-M15, TEM-1)
[17] = tested on: K. pneumoniae KI (KCl); assay: Broth microdilution MIC (strain enzymes: TEM-10)
[18] = tested on: K. pneumoniae KP 3; assay: Broth microdilution MIC (strain enzymes: SHV-1, TEM-1)
[19] = tested on: K. pneumoniae KP 4; assay: Broth microdilution MIC (strain enzymes: SHV-2a, SHV-5, TEM-1)
[20] = tested on: K. pneumoniae KP 8; assay: Broth microdilution MIC (strain enzymes: TEM-10, TEM-1, CTX-M15)
[21] = tested on: panel of ESBL-producing Enterobacteriaceae (40 strains); assay: Broth microdilution MIC50/MIC90 summary over the panel

## O=C(O)[C@H]1/C(=C/CO)O[C@@H]2CC(=O)N21 [Clavulanic acid, clavulanic acid, reference compound]
[1]
  MIC of cefalexin (LEX): 0.5 µg/mL
  MIC of cefdinir (CDR): 0.5 µg/mL
  MIC of cefixime (CFM): 1 µg/mL
  MIC of ceftibuten (CTB): 0.5 µg/mL
[2]
  MIC of cefalexin (LEX): 0.5 µg/mL
  MIC of cefdinir (CDR): 0.5 µg/mL
  MIC of cefixime (CFM): 1 µg/mL
  MIC of ceftibuten (CTB): 0.5 µg/mL
[3]
  MIC of cefalexin (LEX): 0.5 µg/mL
  MIC of cefdinir (CDR): 0.5 µg/mL
  MIC of cefixime (CFM): 2 µg/mL
  MIC of ceftibuten (CTB): 1 µg/mL
[4]
  MIC of cefalexin (LEX): >32 µg/mL
  MIC of cefdinir (CDR): >32 µg/mL
  MIC of cefixime (CFM): 32 µg/mL
  MIC of ceftibuten (CTB): 4 µg/mL
[5]
  MIC of cefalexin (LEX): 1 µg/mL
  MIC of cefdinir (CDR): 1 µg/mL
  MIC of cefixime (CFM): 1 µg/mL
  MIC of ceftibuten (CTB): 0.5 µg/mL
[6]
  MIC of cefalexin (LEX): 0.25 µg/mL
  MIC of cefdinir (CDR): 0.25 µg/mL
  MIC of cefixime (CFM): 0.25 µg/mL
  MIC of ceftibuten (CTB): 0.5 µg/mL
[7]
  MIC of cefalexin (LEX): 1 µg/mL
  MIC of cefdinir (CDR): 1 µg/mL
  MIC of cefixime (CFM): 0.5 µg/mL
  MIC of ceftibuten (CTB): 0.125 µg/mL
[8]
  MIC of cefalexin (LEX): 0.25 µg/mL
  MIC of cefdinir (CDR): 0.25 µg/mL
  MIC of cefixime (CFM): 0.5 µg/mL
  MIC of ceftibuten (CTB): 0.25 µg/mL
[9]
  MIC of cefalexin (LEX): 0.5 µg/mL
  MIC of cefdinir (CDR): 0.5 µg/mL
  MIC of cefixime (CFM): 1 µg/mL
  MIC of ceftibuten (CTB): 0.5 µg/mL
[10]
  MIC of cefalexin (LEX): 0.25 µg/mL
  MIC of cefdinir (CDR): 0.25 µg/mL
  MIC of cefixime (CFM): 0.5 µg/mL
  MIC of ceftibuten (CTB): 0.5 µg/mL
[11]
  MIC of cefalexin (LEX): 0.06 µg/mL
  MIC of cefdinir (CDR): 0.06 µg/mL
  MIC of cefixime (CFM): 0.03 µg/mL
  MIC of ceftibuten (CTB): 0.125 µg/mL
[12]
  MIC of cefalexin (LEX): 0.125 µg/mL
  MIC of cefdinir (CDR): 0.125 µg/mL
  MIC of cefixime (CFM): 0.125 µg/mL
  MIC of ceftibuten (CTB): 0.06 µg/mL
[13]
  MIC of cefalexin (LEX): 0.06 µg/mL
  MIC of cefdinir (CDR): 0.06 µg/mL
  MIC of cefixime (CFM): 0.125 µg/mL
  MIC of ceftibuten (CTB): 0.25 µg/mL
[14]
  MIC of cefalexin (LEX): 0.5 µg/mL
  MIC of cefdinir (CDR): 0.5 µg/mL
  MIC of cefixime (CFM): 2 µg/mL
  MIC of ceftibuten (CTB): 0.25 µg/mL
[15]
  MIC of cefalexin (LEX): 0.5 µg/mL
  MIC of cefdinir (CDR): 0.5 µg/mL
  MIC of cefixime (CFM): 0.125 µg/mL
  MIC of ceftibuten (CTB): 0.125 µg/mL
[16]
  MIC of cefalexin (LEX): >32 µg/mL
  MIC of cefdinir (CDR): >32 µg/mL
  MIC of cefixime (CFM): >32 µg/mL
  MIC of ceftibuten (CTB): >32 µg/mL
[17]
  MIC of cefalexin (LEX): 0.125 µg/mL
  MIC of cefdinir (CDR): 0.125 µg/mL
  MIC of cefixime (CFM): 0.125 µg/mL
  MIC of ceftibuten (CTB): 0.06 µg/mL
[18]
  MIC of cefalexin (LEX): 1 µg/mL
  MIC of cefdinir (CDR): 1 µg/mL
  MIC of cefixime (CFM): 0.5 µg/mL
  MIC of ceftibuten (CTB): 0.125 µg/mL
[19]
  MIC of cefalexin (LEX): 0.125 µg/mL
  MIC of cefdinir (CDR): 0.125 µg/mL
  MIC of cefixime (CFM): 0.125 µg/mL
  MIC of ceftibuten (CTB): 2 µg/mL
[20]
  MIC of cefalexin (LEX): 0.125 µg/mL
  MIC of cefdinir (CDR): 0.125 µg/mL
  MIC of cefixime (CFM): 0.06 µg/mL
  MIC of ceftibuten (CTB): 0.06 µg/mL
[21]
  Cefdinir MIC50: 0.5 µg/mL
  Cefdinir MIC90: 2 µg/mL
  Cefixime MIC50: 0.5 µg/mL
  Cefixime MIC90: 2 µg/mL
  Cefpodoxime MIC50: 0.5 µg/mL
  Cefpodoxime MIC90: 4 µg/mL
  Ceftibuten MIC50: 0.25 µg/mL
  Ceftibuten MIC90: 2 µg/mL
  Cephalexin MIC50: 16 µg/mL
  Cephalexin MIC90: 32 µg/mL

Source: patent US12544395B2, “Combination compositions comprising a beta-lactamase inhibitor and uses thereof” (priority 2018, dated 2026)
